{"source": "paper PMC8763936", "about": "(Investigational New Drugs, 2021)", "key": {"CYP2D6": {"biological_target": "CYP2D6 (Homo sapiens, UniProt P10635)", "sequence (P10635 whole entry)": "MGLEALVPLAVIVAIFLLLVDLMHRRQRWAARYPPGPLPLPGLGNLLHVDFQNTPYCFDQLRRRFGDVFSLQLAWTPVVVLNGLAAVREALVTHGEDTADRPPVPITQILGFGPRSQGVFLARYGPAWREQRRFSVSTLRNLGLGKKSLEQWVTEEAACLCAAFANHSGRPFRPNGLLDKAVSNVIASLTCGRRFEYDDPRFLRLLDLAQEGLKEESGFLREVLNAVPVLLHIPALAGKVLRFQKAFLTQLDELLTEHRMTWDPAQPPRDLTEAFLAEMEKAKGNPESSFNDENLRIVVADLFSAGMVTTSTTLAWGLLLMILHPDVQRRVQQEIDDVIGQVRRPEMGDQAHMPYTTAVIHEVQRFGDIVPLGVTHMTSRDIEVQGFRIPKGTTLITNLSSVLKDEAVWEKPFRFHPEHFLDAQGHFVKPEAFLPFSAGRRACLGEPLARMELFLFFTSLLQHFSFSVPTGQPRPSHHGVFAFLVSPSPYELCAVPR", "assay": "Effect of CYP-selective inhibitors on metabolism of entrectinib by pooled human liver microsomes", "settings": "inhibitor 1 µM, 1 µM entrectinib"}, "clinical": {"assay": "clinical", "settings": "human, oral"}, "CYP3A4/5": {"test_system": "CYP3A4/5", "assay": "Effect of CYP-selective inhibitors on metabolism of entrectinib by pooled human liver microsomes", "assay_type": "in vitro ADME"}, "[1]": {"assay": "Study 2: midazolam pharmacokinetics alone or with single and multiple dose entrectinib", "from_the_text": "Following completion of this part of the study, subjects could continue in an expanded access portion of the study which is not discussed here."}, "[2]": {"settings": "Digoxin alone, geometric mean (geometric CV)"}, "[3]": {"settings": "digoxin with entrectinib vs alone"}, "[4]": {"settings": "single dose entrectinib 600 mg vs digoxin alone"}, "[5]": {"settings": "Midazolam with multiple dose entrectinib, geometric mean (geometric CV)"}, "[6]": {"settings": "Midazolam with multiple dose entrectinib, median (minimum, maximum)"}, "[7]": {"settings": "Midazolam with single dose entrectinib, geometric mean (geometric CV)"}, "[8]": {"settings": "Effect of Multiple Dose Entrectinib"}, "[9]": {"settings": "Effect of Single Dose Entrectinib"}, "[10]": {"settings": "Midazolam alone, geometric mean (geometric CV)"}, "[11]": {"settings": "Midazolam with multiple dose entrectinib 600 mg/day, geometric mean (geometric CV)"}, "[12]": {"settings": "Midazolam with single dose entrectinib 600 mg, geometric mean (geometric CV)"}}, "note": "Where two headings read alike, the source gives them in different places."}
{"smiles": "C=C[C@H]1C[N@@]2CC[C@H]1C[C@@H]2[C@@H](O)c1ccnc2ccc(OC)cc12", "note": "[Quinidine]", "values": [{"measurement": "Effect on Formation of other Entrectinib Metabolites", "setting": "CYP2D6", "result": "+ (> 20% inhibition of 1 metabolite)"}]}
{"smiles": "C[C@H]1O[C@@H](O[C@H]2[C@@H](O)C[C@H](O[C@H]3[C@@H](O)C[C@H](O[C@H]4CC[C@@]5(C)[C@H](CC[C@@H]6[C@@H]5C[C@@H](O)[C@]5(C)[C@@H](C7=CC(=O)OC7)CC[C@]65O)C4)O[C@@H]3C)O[C@@H]2C)C[C@H](O)[C@@H]1O", "note": "[Digoxin]", "values": [{"measurement": "Cmax", "setting": "[2]", "result": 1.97, "unit": "nM"}, {"measurement": "fe, percent of dose excreted unchanged in urine", "setting": "[2]", "result": "40.2 (13%)"}, {"measurement": "t1/2", "setting": "[2]", "result": "35.9 (15%) h"}, {"measurement": "fe, percent of dose excreted unchanged in urine", "setting": "Digoxin alone, geometric mean (geometric CV), listed as digoxin", "result": 40, "unit": "%"}, {"measurement": "Tmax", "setting": "Digoxin alone, median (minimum, maximum)", "result": "1.0 (0.5, 1.0) h"}, {"measurement": "CLR", "setting": "Digoxin alone, renal clearance, geometric mean (geometric CV)", "result": "130 (16%) mL/min"}, {"measurement": "fe, percent of dose excreted unchanged in urine", "setting": "Digoxin with single 600 mg entrectinib, geometric mean (geometric CV)", "result": "44.0 (14%)"}, {"measurement": "fe, percent of dose excreted unchanged in urine", "setting": "Digoxin with single 600 mg entrectinib, geometric mean (geometric CV), listed as digoxin", "result": 44, "unit": "%"}, {"measurement": "Ratio of adjusted geometric means (90% Confidence Intervals), AUCinf", "setting": "[3]", "result": "1.18 (1.06, 1.32)"}, {"measurement": "Ratio of adjusted geometric means (90% Confidence Intervals), CLR", "setting": "[3]", "result": "0.95 (0.91, 0.98)"}, {"measurement": "Ratio of adjusted geometric means (90% Confidence Intervals), Cmax", "setting": "[3]", "result": "1.28 (0.98, 1.67)"}, {"measurement": "geometric mean ratio of CLR with and without entrectinib", "setting": "exploratory analysis, 90% CI: 90.9%, 98.4%", "result": 94.6, "unit": "%"}, {"measurement": "Tmax later", "setting": "single 600 mg dose of entrectinib coadministered with digoxin", "result": "approximately 1 h"}, {"measurement": "increase of AUCinf", "setting": "[4]", "result": 18, "unit": "%"}, {"measurement": "increase of Cmax", "setting": "[4]", "result": 28, "unit": "%"}, {"measurement": "increase in digoxin exposure", "setting": "single oral dose of entrectinib coadministered", "result": "20–30%"}, {"measurement": "AUC(0-inf)", "setting": "clinical; plasma, 75 mg", "result": 0.0342, "unit": "µM·h"}, {"measurement": "AUC(0-inf)", "setting": "clinical; plasma, 600 mg", "result": 0.0404, "unit": "µM·h"}, {"measurement": "Cmax", "setting": "clinical; plasma, 600 mg", "result": 2.52, "unit": "nM"}, {"measurement": "Tmax", "setting": "clinical; plasma, 600 mg", "result": 2, "unit": "h"}, {"measurement": "half-life", "setting": "clinical; plasma, 600 mg", "result": 38.4, "unit": "h"}, {"measurement": "CL renal", "setting": "clinical; urine, 600 mg", "result": 123, "unit": "mL/min"}]}
{"smiles": "CC(=O)N1CCN(c2ccc(OCC3COC(Cn4ccnc4)(c4ccc(Cl)cc4Cl)O3)cc2)CC1", "note": "(stereo not drawn) [Ketoconazole]", "values": [{"measurement": "inhibition of entrectinib metabolism depending on the metabolite formed", "setting": "CYP3A4/5; human liver microsomes", "result": "50–80%"}, {"measurement": "inhibition at 1 µM", "setting": "CYP3A4/5; human, pooled human liver microsomes, probe entrectinib (metabolism to M5)", "result": "82 ± 3", "unit": "%"}, {"measurement": "Effect on Formation of other Entrectinib Metabolites", "setting": "CYP3A4/5; inhibitor 1 µM, 1 µM entrectinib, pooled human liver microsomes", "result": "+ + + (> 50% inhibition of multiple metabolites)"}]}
{"smiles": "Cc1ncc2n1-c1ccc(Cl)cc1C(c1ccccc1F)=NC2", "note": "[Midazolam]", "values": [{"measurement": "t1/2", "setting": "[1]; [5]", "result": "6.4 (68%) h"}, {"measurement": "Tmax", "setting": "[1]; [6]", "result": "0.50 (0, 1.05) h"}, {"measurement": "t1/2", "setting": "[1]; [7]", "result": "5.33 (44%) h"}, {"measurement": "half-life", "setting": "[1]; human, plasma, oral", "result": 8.13, "unit": "h"}, {"measurement": "Cmax", "setting": "[1]; human, plasma, oral, 7.5 mg", "result": 19, "unit": "nM"}, {"measurement": "Tmax", "setting": "[1]; human, plasma, oral, 7.5 mg", "result": 0.49, "unit": "h"}, {"measurement": "half-life", "setting": "[1]; human, plasma, oral, 7.5 mg", "result": 5.2, "unit": "h"}, {"measurement": "AUC(0-inf)", "setting": "[1]; human, plasma, oral, 600 mg", "result": 0.0437, "unit": "µM·h"}, {"measurement": "Cmax", "setting": "[1]; human, plasma, oral, 600 mg", "result": 12.9, "unit": "nM"}, {"measurement": "mean t1/2", "setting": "[1]; midazolam with a single dose of entrectinib", "result": 5.73, "unit": "h"}]}
{"smiles": "OCc1ncc2n1-c1ccc(Cl)cc1C(c1ccccc1F)=NC2", "note": "[1’-hydroxymidazolam]", "values": [{"measurement": "Ratio of adjusted geometric means (90% Confidence Intervals), AUCinf", "setting": "[1]; [8]", "result": "0.89 (0.70, 1.12)"}, {"measurement": "Ratio of adjusted geometric means (90% Confidence Intervals), Cmax", "setting": "[1]; [8]", "result": "0.49 (0.36, 0.67)"}, {"measurement": "Ratio of adjusted geometric means (90% Confidence Intervals), AUCinf", "setting": "[1]; [9]", "result": "0.96 (0.83, 1.10)"}, {"measurement": "Ratio of adjusted geometric means (90% Confidence Intervals), Cmax", "setting": "[1]; [9]", "result": "0.62 (0.50, 0.76)"}, {"measurement": "Cmax", "setting": "[1]; [10]", "result": 6.57, "unit": "nM"}, {"measurement": "t1/2", "setting": "[1]; [10]", "result": "3.71 (81%) h"}, {"measurement": "Tmax", "setting": "[1]; Midazolam alone, median (minimum, maximum)", "result": "0.5 (0.25, 1.00) h"}, {"measurement": "AUCinf", "setting": "[1]; Midazolam alone, single 7.5 mg midazolam dose (title), subjects with advanced solid tumors, geometric mean (geometric CV)", "result": "14.9 (60%) nM•h"}, {"measurement": "AUCinf", "setting": "[1]; [11]", "result": "14.0 (42%) nM•h"}, {"measurement": "Cmax", "setting": "[1]; [11]", "result": 3.51, "unit": "nM"}, {"measurement": "t1/2", "setting": "[1]; [5]", "result": "5.37 (75%) h"}, {"measurement": "Tmax", "setting": "[1]; [6]", "result": "0.75 (0.5, 5.97) h"}, {"measurement": "AUCinf", "setting": "[1]; [12]", "result": "14.4 (52%) nM•h"}, {"measurement": "Cmax", "setting": "[1]; [12]", "result": 4.21, "unit": "nM"}, {"measurement": "t1/2", "setting": "[1]; [7]", "result": "4.56 (49%) h"}, {"measurement": "Tmax", "setting": "[1]; Midazolam with single dose entrectinib, median (minimum, maximum)", "result": "1.0 (0.48, 23.6) h"}, {"measurement": "metabolic ratio of metabolite to parent for AUCinf and Cmax, point estimates", "setting": "[1]; coadministration with multiple-dose entrectinib vs midazolam alone", "result": "59% to 64%"}, {"measurement": "decrease of 1’-hydroxymidazolam metabolite-to-parent ratio", "setting": "[1]; multiple oral doses of entrectinib at steady-state", "result": 41, "unit": "%"}]}
